# Reference: patent publication US20250244310A1, “METHODS OF IDENTIFICATION AND TARGETING OF MASTER KINASES IN CANCER” (The Trustees of Columbia University in the City of New York, priority 2022, published 2025)
# Columns and labels:
# [1] = test system: phosphorylation of PKCδ on tyr-311; assay: Western blot of GPM PDOs incubated with IGF-I, IGF-II or insulin; format: cell-based, human; settings: IGF-I 10 ng/ml, IGF-II 10 ng/ml, insulin 100 ng/ml, FIGS. 14b, c
# From the text: (§1) V9131), and j-actin 1:10,000 (Sigma, no. A5441).
# GPM PDOs = assay: Irradiation-drug combination viability, GPM PDOs; format: cell-based, human; settings: eight GPM PDOs; FIG. 5k
# Procedure: (§2) Cells were cultured in DMEM/F12 medium supplemented with N-2, B-27, EGF and FGF. Cells were plated in 130 μl in opaque white 96-well plates. Twenty-four hrs later cells were treated with 3-fold serial dilutions of compounds as indicated in six replicates for 72 hrs. Viability was determined using CellTiterGlo assay reagent (Promega, G7570) and GloMax-Multi+ Microplate Multimode Reader (Promega). For the irradiation-drug combination treatment, PDOs cells were plated in 96 well plates 24 hrs before treatment. Cells were treated with 3-fold serial dilutions of M3814 two hrs before exposure to various irradiation doses (2, 4, 8 Gy at 0.7 Gy/min) from a ^137Cs source (GammaCell 40 irradiator, Teratronics). Mock irradiated cells were cultured in parallel. Viability was determined 96 hrs later using CellTiterGlo assay reagent (Promega, G7570) and GloMax-Multi+ Microplate Multimode Reader (Promega). Data are mean±s.d. of the viability ratio from 6 observations in 8 PPR and 8 GPM PDOs. Experiments were performed at least twice with similar results. Clonogenic assays for the evaluation of irradiation-drug combination were performed in 96 well plates. Each experimental point was plated in 3 independent 96 well plates. The number of wells containing PDO spheres were scored and the value of control untreated cell was considered 100% clonogenicity for the specific PDO. […]
# [2] = test system: phosphorylation of serine-343 of NBS1 and serine-824 of KAP1; assay: Western blot of PPR PDO cells, irradiation plus nedisertib: double-strand break markers; format: cell-based, human; settings: PPR PDOs, until 24 hours after irradiation, FIG. 5l
# From the text: as §1
# PPR and GPM PDOs = assay: Clonogenic assay for irradiation-drug combination; format: cell-based, human; settings: two PPR and GPM PDOs, irradiation plus nedisertib; FIG. 15b
# Procedure: as §2
# PPR GBM PDOs = assay: Irradiation-drug combination viability, PPR PDOs; format: cell-based, human
# Procedure: as §2
# γH2AX foci = assay: Immunofluorescence analysis of γH2AX foci in PPR PDO cells; format: cell-based, human; settings: IR 4 Gy plus nedisertib 556 nM, 0-24 hr, FIG. 5m
# Procedure: Cells were fixed with 4% paraformaldehyde, permeabilized with cold methanol for 90 seconds at 4° C., and blocked with 5% BSA, 0.05% Triton X-100 in PBS for 30 minutes. Cells were exposed to primary antibody phospho-H2AX 1:500 (S139, CST, #2577) for one hour at room temperature followed by Cy3-conjugated anti rabbit (Invitrogen, A10520) for one hour at room temperature. Nuclei were stained with DAPI (Sigma). Images were acquired using a Nikon Ti Eclipse inverted microscope for spinning-disk confocal microscopy equipped with a Plan Apochromat 60× oil/1.4 NA DIC objective. Counting of TH2AX foci in individual nuclei were analyzed by ImageJ (NIH, Bethesda, USA) by specific in-built find Maxima>Prominence>Point Selection plug-in. Minimum 50 nuclei in at least ten representative images were included for analysis in each treatment group.
# [3] = test system: serine-2056 phosphorylation of DNA-PKcs; settings: irradiated PPR PDO cells; FIG. 5l
# Procedure: Cells were lysed in RIPA buffer (50 mM Tris-HCl pH 7.5, 150 mM NaCl, 1 mM EDTA, 1% NP40, 0.5% sodium dexoycholate, 0.1% sodium dodecyl sulfate, 1.5 mM Na3VO4, 50 mM sodiumfluoride, 10 mM sodium pyrophosphate, 10 mM β-glycerolphosphate and EDTA-free protease inhibitor cocktail; Roche). Lysates briefly sonicated, cleared by centrifugation at 15,000 r.p.m. for 15 min at 4° C., separated by SDS-polyacrylamide gel electrophoresis and transferred to polyvinylidene difluoride membrane. Membranes were blocked in Tris-buffered saline with 5% nonfat milk and 0.1% Tween 20 and probed with primary antibodies overnight at 4° C. Antibodies0 and concentrations were as follows: p-DNA-PK 1:1,000 (Ser2056, CST, #68716), DNA-PK 1:1,000 (CST, #38168), p-NBS1 1:1,000 (Ser343, CST, #3001), NBS1 1:1,000 (CST, #81234), p-KAP1 1:1,000 (Ser824, Abcam, ab133440), KAP1 1:1,000 (Abcam, ab109287), p-CHK1 (Ser317, CST, #12302), CHK1 (CST, #2360), p-PKCδ 1:1,000 (Tyr311, CST, #20555), PKCδ 1:1,000 (CST, #96165), p-STAT3 1:1,000 (Tyr705, CST, #91455), STAT3 1:1,000 (CST, #49045) p-AKT 1:1,000 (Ser473, CST, #40605), p-AKT 1:1,000 (Thr308, CST, #13038S), AKT 1:1,000 (CST, #49615), p-ERK1/2 1:1,000 (Thr202/Tyr204, CST, #4370), ERK1/2 1:1,000 (CST, #9102), GAPDH 1:10,000 (Abcam, ab9484), Vinculin 1:10,000 (Sigma, no. V9131), and j-actin 1:10,000 (Sigma, no. A5441). […]
# [4] = test system: AKT-ser-473 and STAT3-tyr-705 phosphorylation; assay: Western blot of GPM PDO cells treated with BJE6-106; format: cell-based, human; settings: BJE6-106 at 50 µM, time course, FIG. 5d
# From the text: as §1
# GPM PDO cells = assay: Colony-forming (clonogenic) assay of GPM PDO cells treated with BJE6-106; format: cell-based, human; settings: FIG. 5c
# Procedure: Cell growth and clonogenic assay. Time course analysis of the cellular growth of shPRKCD infected PDOs or the empty vector was performed by plating 4,500 cells per well in 96-well plates. Viability was determined using CellTiterGlo assay reagent (Promega, G7570) and the GloMax-Multi+ Microplate Multimode Reader (Promega). Data are mean±s.d. of five replicates, and experiments were repeated twice. For clonogenic assay of PDO cells treated with increasing concentration of BJE6-106, 1,500 cells were plated in 6-well plates in triplicate. Cells were fixed in methanol and stained with crystal violet 2 weeks later. Colonies with more than 50 cells were scored. Data are mean±s.d. of triplicate observations from one representative experiment. Experiments were repeated twice.
# LUSC cell lines = assay: DepMap menadione survival ratio, LUSC cell lines; format: cell-based; settings: 71 LUSC cell lines from DepMap; p=0.076
# From the text: (§3) We used the BRCA and LUSC cell lines cohorts from DepMap for which both RNA-Seq expression and menadione survival ratio from PRISM Repurposing Primary Screen were available (n=26 for BRCA and n=71 for LUSC)^94. For each cell line, we used the transcriptomic profile to calculated the NES of the four functional GBM subtypes by MWW-GST using gene signatures obtained from the analysis of TCGA samples. Each cell line was classified according the highest subtype activity (NES). We assessed the difference in survival ratio between the mitochondrial cell lines and the others using two-sided Student t-test, unequal variance.
# BRCA cell lines = assay: DepMap menadione survival ratio, BRCA cell lines; format: cell-based; settings: 26 BRCA cell lines from DepMap; p=0.008
# From the text: as §3
compound,measurement,setting,value
IGF2: growth factor used to stimulate GPM PDOs (10 ng/ml),phosphorylation of PKCδ on tyr-311,[1],induced phosphorylation of PKCδ on tyr-311
insulin: hormone used to stimulate GPM PDOs (100 ng/ml),phosphorylation of PKCδ on tyr-311,[1],induced phosphorylation of PKCδ on tyr-311
COc1ccc([C@@H](O)c2cc(-c3ncnc4cc(N5CCOCC5)ccc34)c(F)cc2Cl)nn1 [nedisertib],effect of nedisertib-IR combination on viability,GPM PDOs,virtually ineffective
same,phosphorylation of serine-343 of NBS1 and serine-824 of KAP1 (unrepaired DNA damage),[2],sustained phosphorylation of serine-343 of NBS1 and serine-824 of KAP1
same,radiosensitivity by clonogenic assay,PPR and GPM PDOs,confirmed these results
same,"tumor cell viability, nedisertib-IR combination compared to each individual treatment","PPR GBM PDOs; eight PPR GBM PDOs, FIG. 5k",marked reduction of tumor cell viability
same,radiation dose enhancement factor (DEF),"PPR GBM PDOs; six of the eight PPR PDOs, even at the lowest concentrations of nedisertib",> 2
same,number of γH2AX foci,γH2AX foci,remained elevated throughout the course of the experiment
same,serine-2056 phosphorylation of DNA-PKcs,[3],inhibited serine-2056 phosphorylation of DNA-PKcs
CC1(C)C=Cc2cc(CCn3c4ccccc4c4ccccc43)cc(C=O)c2O1 [BJE-10676],AKT-ser-473 and STAT3-tyr-705 phosphorylation,[4],time-dependent decrease of AKT-ser-473 and STAT3-tyr-705 phosphorylation
same,colony formation,GPM PDO cells,dose-dependent inhibition of colony formation
CC1=CC(=O)c2ccccc2C1=O [menadione],"menadione survival ratio, difference between mitochondrial cell lines versus the others, log2(FC)",LUSC cell lines,−0.63
same,"menadione survival ratio, difference between mitochondrial cell lines versus the others, log2(FC)",BRCA cell lines,−1.31
IGF1: growth factor used to stimulate GPM PDOs (10 ng/ml),phosphorylation of PKCδ on tyr-311,[1],induced phosphorylation of PKCδ on tyr-311
